Assay results from ChEMBL document CHEMBL1909046, “DrugMatrix in vitro pharmacology data”.

Experiments:
[1] = molecular target: T1, Cysteinyl leukotriene receptor 1 (Homo sapiens, UniProt Q9Y271); format: cell membranes, CHO-K1, Membrane; conditions: cho-k1; also: in other assays of this panel Not Active means under 50% inhibition at 10 µM
T1 sequence (Q9Y271 whole entry): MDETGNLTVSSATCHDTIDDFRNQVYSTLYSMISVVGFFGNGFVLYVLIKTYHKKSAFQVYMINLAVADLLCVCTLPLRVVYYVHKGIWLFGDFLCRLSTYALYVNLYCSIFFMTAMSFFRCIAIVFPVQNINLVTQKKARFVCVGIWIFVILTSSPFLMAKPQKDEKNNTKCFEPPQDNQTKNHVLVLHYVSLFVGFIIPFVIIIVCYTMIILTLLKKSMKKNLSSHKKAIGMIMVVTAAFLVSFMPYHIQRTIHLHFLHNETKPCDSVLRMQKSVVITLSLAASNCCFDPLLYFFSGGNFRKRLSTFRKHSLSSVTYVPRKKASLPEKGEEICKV

[2] = molecular target: Matrix metalloproteinase-9 (Homo sapiens, UniProt P14780); experiment: biochemical; format: cell-based;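 also: inhibition of isolated MMP-9 enzyme activity toward a synthetic peptide substrate, from the DrugMatrix protease screening panel; in other assays of this panel Not Active means under 50% inhibition at 10 µM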
[3] = molecular target: Voltage-gated inwardly rectifying potassium channel KCNH2 (Homo sapiens, UniProt Q12809); conditions: hek293; also: in other assays of this panel Not Active means under 50% inhibition at 10 µM
[4] = DRUGMATRIX: Serotonin (5-Hydroxytryptamine) 5-HT3 radioligand binding (ligand: [3H] GR-65630); format: cell membranes, Membrane; conditions: hek293; Not Active = under 50% inhibition at 10 µM
[5] = molecular target: Beta-1 adrenergic receptor (Homo sapiens, UniProt P08588); experiment: DRUGMATRIX: Adrenergic beta1 radioligand binding (ligand: [125I] Cyanopindolol); format: cell membranes, CHO-K1, Membrane; conditions: cho-k1; Not Active = under 50% inhibition at 10 µM
[6] = molecular target: Acetylcholinesterase (Homo sapiens, UniProt P22303); experiment: DRUGMATRIX: Acetylcholinesterase enzyme inhibition (substrate: acetylthiocholine); format: cell-based, HEK293; conditions: hek293; Not Active = under 50% inhibition at 10 µM
[7] = molecular target: Estrogen receptor beta (Homo sapiens, UniProt Q92731); conditions: sf9; also: in other assays of this panel Not Active means under 50% inhibition at 10 µM
Estrogen receptor beta, sequence (Q92731 whole entry): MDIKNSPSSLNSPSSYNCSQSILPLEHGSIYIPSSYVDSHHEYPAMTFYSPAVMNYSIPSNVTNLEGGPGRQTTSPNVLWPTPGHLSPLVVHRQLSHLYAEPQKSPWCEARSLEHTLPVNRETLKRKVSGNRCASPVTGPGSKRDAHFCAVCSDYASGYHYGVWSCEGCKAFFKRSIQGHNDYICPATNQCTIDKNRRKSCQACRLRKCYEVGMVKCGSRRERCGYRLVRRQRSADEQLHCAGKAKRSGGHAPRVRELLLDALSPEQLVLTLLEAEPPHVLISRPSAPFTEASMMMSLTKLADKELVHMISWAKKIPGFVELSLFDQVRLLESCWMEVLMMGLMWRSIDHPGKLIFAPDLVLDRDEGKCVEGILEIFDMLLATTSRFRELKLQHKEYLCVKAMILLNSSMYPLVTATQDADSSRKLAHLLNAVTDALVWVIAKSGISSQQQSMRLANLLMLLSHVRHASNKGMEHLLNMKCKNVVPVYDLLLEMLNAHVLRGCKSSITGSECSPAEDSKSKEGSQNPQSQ

Voltage-gated inwardly rectifying potassium channel KCNH2, sequence (Q12809 whole entry): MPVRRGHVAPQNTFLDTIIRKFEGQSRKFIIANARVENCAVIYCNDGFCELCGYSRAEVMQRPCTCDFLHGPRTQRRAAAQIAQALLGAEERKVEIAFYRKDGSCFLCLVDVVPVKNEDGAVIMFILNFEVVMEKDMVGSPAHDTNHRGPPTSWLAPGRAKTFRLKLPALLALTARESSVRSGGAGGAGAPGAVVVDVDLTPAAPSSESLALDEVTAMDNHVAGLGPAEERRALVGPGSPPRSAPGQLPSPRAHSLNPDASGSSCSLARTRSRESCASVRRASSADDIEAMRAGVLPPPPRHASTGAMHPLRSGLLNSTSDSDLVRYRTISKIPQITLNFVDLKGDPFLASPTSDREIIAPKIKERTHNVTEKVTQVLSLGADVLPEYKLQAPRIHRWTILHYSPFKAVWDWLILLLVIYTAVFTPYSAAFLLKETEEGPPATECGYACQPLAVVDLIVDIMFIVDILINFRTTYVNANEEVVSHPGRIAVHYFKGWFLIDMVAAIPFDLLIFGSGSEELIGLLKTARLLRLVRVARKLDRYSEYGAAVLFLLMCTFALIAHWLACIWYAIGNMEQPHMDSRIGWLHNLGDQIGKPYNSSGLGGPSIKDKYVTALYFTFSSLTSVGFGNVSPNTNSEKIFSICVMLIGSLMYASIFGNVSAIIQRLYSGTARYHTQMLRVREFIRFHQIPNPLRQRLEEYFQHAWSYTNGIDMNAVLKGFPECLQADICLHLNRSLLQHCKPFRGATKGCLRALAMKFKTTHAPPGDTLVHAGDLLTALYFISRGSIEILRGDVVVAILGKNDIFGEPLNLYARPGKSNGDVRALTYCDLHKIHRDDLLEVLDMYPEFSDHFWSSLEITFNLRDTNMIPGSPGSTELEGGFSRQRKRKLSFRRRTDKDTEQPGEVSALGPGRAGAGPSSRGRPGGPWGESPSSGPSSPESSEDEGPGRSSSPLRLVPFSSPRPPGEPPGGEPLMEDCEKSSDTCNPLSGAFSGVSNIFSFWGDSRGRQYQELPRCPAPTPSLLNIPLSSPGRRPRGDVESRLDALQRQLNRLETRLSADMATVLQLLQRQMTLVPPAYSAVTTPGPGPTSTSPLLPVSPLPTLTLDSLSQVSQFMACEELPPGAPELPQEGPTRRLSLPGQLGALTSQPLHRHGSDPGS
Matrix metalloproteinase-9, sequence (P14780 whole entry): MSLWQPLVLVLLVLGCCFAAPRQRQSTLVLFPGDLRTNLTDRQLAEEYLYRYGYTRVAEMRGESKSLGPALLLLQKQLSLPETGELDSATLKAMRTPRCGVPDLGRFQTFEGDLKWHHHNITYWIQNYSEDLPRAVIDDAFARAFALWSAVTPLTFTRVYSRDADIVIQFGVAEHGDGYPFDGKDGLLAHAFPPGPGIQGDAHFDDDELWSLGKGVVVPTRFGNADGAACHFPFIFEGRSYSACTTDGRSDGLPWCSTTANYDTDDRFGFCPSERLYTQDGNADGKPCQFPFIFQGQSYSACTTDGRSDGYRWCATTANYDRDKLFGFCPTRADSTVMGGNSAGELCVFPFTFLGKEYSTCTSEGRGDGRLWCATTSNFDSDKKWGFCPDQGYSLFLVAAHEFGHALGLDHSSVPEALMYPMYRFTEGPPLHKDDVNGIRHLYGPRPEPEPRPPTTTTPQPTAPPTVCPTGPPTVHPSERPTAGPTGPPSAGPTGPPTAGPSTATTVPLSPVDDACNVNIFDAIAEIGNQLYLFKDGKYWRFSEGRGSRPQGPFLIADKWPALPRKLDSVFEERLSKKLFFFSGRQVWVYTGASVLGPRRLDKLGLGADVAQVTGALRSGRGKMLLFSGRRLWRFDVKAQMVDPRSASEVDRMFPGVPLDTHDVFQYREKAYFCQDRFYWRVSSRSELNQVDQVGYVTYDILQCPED
Acetylcholinesterase, sequence (P22303 whole entry): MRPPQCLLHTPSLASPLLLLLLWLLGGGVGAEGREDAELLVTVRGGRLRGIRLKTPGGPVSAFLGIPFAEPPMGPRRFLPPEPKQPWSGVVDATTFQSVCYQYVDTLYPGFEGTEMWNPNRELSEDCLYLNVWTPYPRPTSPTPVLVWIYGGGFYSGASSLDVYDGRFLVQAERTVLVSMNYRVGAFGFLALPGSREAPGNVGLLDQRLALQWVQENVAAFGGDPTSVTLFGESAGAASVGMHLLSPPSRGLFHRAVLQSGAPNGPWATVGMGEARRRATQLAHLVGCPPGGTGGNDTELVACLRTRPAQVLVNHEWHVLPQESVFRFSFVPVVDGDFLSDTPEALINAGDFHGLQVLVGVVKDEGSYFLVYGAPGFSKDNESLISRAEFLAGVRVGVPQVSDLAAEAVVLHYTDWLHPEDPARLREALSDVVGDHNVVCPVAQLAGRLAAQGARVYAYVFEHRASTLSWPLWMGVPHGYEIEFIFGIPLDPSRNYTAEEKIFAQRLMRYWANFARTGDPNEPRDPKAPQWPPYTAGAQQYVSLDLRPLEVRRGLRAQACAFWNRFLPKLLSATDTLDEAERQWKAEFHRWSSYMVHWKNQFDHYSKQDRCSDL
Beta-1 adrenergic receptor, sequence (P08588 whole entry): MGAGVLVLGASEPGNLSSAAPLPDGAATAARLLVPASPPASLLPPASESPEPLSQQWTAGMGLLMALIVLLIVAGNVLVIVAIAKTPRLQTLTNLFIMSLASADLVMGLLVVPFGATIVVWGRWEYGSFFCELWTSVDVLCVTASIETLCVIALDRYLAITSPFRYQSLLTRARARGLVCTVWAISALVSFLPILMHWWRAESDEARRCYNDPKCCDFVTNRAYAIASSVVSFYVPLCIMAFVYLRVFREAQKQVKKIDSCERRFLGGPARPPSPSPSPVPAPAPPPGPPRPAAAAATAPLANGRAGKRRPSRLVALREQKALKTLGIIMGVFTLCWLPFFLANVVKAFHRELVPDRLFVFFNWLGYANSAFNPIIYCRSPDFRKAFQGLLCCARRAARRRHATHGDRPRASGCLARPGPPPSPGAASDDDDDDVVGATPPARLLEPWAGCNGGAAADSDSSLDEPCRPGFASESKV

Clc1cccc(Cl)c1NC1=NCCN1 [CLONIDINE]
Not Active: IC50 [1] | IC50 [2] | IC50 [3] | Ki [3] | IC50 [4] | Ki [4] | IC50 [5] | IC50 [6]

C[C@H](CCC(=O)O)[C@H]1CC[C@H]2[C@@H]3[C@H](O)C[C@@H]4C[C@H](O)CC[C@]4(C)[C@H]3C[C@H](O)[C@]12C [CHOLIC ACID]
Not Active: IC50 [1] | IC50 [2] | IC50 [3] | Ki [3] | IC50 [4] | Ki [4] | IC50 [5] | IC50 [6]

N=C(N)NCCN1CCCCCCC1 [GUANETHIDINE]
Not Active: IC50 [1] | IC50 [2] | IC50 [4] | Ki [4] | IC50 [5] | IC50 [6]

CNCCc1ccccn1 [BETAHISTINE]
Not Active: IC50 [1] | IC50 [2] | IC50 [3] | Ki [3] | IC50 [4] | Ki [4] | IC50 [6]

O=C(O)CCCc1ccc(N(CCCl)CCCl)cc1 [CHLORAMBUCIL]
Not Active: IC50 [1] | IC50 [2] | IC50 [3] | Ki [3] | IC50 [4] | Ki [4] | IC50 [5] | IC50 [6]

NCCCCCC(=O)O [AMINOCAPROIC ACID]
Not Active: IC50 [1] | IC50 [2] | IC50 [3] | Ki [3] | IC50 [4] | Ki [4] | IC50 [5] | IC50 [6]

CC(NC(C)(C)C)C(=O)c1cccc(Cl)c1 (stereo not given) [BUPROPION]
Not Active: IC50 [1] | IC50 [2] | IC50 [7] | IC50 [4] | Ki [4] | IC50 [5] | IC50 [6]

CNCCCN1c2ccccc2CCc2ccccc21 [DESIPRAMINE]
Not Active: IC50 [1] | IC50 [2] | IC50 [4] | Ki [4] | IC50 [6]

C[C@]12CC[C@@H]3c4ccc(O)cc4CC[C@H]3[C@@H]1CCC2=O [ESTRONE]
Not Active: IC50 [1] | IC50 [2] | IC50 [3] | Ki [3] | IC50 [4] | Ki [4] | IC50 [5] | IC50 [6]

C[C@]12CCC(=O)C=C1CC[C@@H]1[C@@H]2CC[C@@]2(C)[C@H]1CC[C@]2(C)O [METHYLTESTOSTERONE]
Not Active: IC50 [1] | IC50 [2] | IC50 [3] | Ki [3] | IC50 [4] | Ki [4] | IC50 [5] | IC50 [6]

CC(=O)O[C@@]12CO[C@@H]1C[C@H](O)[C@@]1(C)C(=O)[C@H](O)C3=C(C)[C@@H](OC(=O)[C@H](O)[C@@H](NC(=O)OC(C)(C)C)c4ccccc4)C[C@@](O)([C@@H](OC(=O)c4ccccc4)[C@H]21)C3(C)C.O.O.O [DOCETAXEL]
Not Active: IC50 [1] | IC50 [2] | IC50 [3] | Ki [3] | IC50 [4] | Ki [4] | IC50 [5] | IC50 [6]

Nc1ncn([C@@H]2O[C@H](CO)[C@@H](O)[C@H]2O)c(=O)n1 [AZACITIDINE]
Not Active: IC50 [1] | IC50 [2] | IC50 [3] | Ki [3] | IC50 [4] | Ki [4] | IC50 [5] | IC50 [6]

C[C@](N)(Cc1ccc(O)c(O)c1)C(=O)O [METHYLDOPA]
Not Active: IC50 [1] | IC50 [2] | IC50 [3] | Ki [3] | IC50 [4] | Ki [4] | IC50 [5] | IC50 [6]

O=C(CCCN1CC=C(n2c(=O)[nH]c3ccccc32)CC1)c1ccc(F)cc1 [DROPERIDOL]
Not Active: IC50 [1] | IC50 [2] | IC50 [7] | IC50 [4] | Ki [4] | IC50 [5] | IC50 [6]

COCCc1ccc(OCC(O)CNC(C)C)cc1 (stereo not given) [METOPROLOL]
Not Active: IC50 [1] | IC50 [2] | IC50 [7] | IC50 [3] | Ki [3] | IC50 [4] | Ki [4] | IC50 [6]

C[C@H]1c2cccc(O)c2C(=O)C2=C(O)[C@]3(O)C(=O)C(C(N)=O)=C(O)[C@@H](N(C)C)[C@@H]3[C@@H](O)[C@@H]21.O [DOXYCYCLINE]
Not Active: IC50 [1] | IC50 [2] | IC50 [3] | Ki [3] | IC50 [4] | Ki [4] | IC50 [5] | IC50 [6]
